Among the data in PubChem BioAssay (NCI) are TGI values, retold here.

Each structure is given as a SMILES string.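 Cells were grown in 96-well plates and exposed to each compound for 48 hours at five concentrations; endpoints were interpolated linearly between bracketing concentrations, or set to the highest concentration if not reached. TGI: total growth inhibition.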

Test systems include MALME-3M melanoma; OVCAR-3 ovarian; SNB-19 CNS; IGROV1 ovarian; RXF 393 renal; ACHN renal; RPMI-8226 leukemia; NCI/ADR-RES ovarian; HCT-15 colon; UO-31 renal; EKVX NSCLC; NCI-H226 lung; MDA-MB-231 breast; OVCAR-8 ovarian; SR leukemia.
What all share (assay): NCI tumour cell line growth inhibition, 48 h

Turning to `N#Cc1cnn2c1n[n+]([O-])c1ccc(Cl)cc12`, the TGI in the test with MALME-3M melanoma was 19.8 µM; in the test with OVCAR-3 ovarian, 9.08 µM; with SNB-19 CNS it was 10.1 µM; in the test with IGROV1 ovarian, 8.53 µM; with RXF 393 renal, 42.4 µM; with ACHN renal, 10.5 µM. Also, the TGI with RPMI-8226 leukemia is greater than 100 µM; in the test on NCI/ADR-RES ovarian, greater than 32.3 µM; in the test with HCT-15 colon it was 4.36 µM; with UO-31 renal it was 21.7 µM; in the test on EKVX NSCLC, 7.24 µM; in the test with NCI-H226 lung it was 49.7 µM. Also, the TGI with MDA-MB-231 breast was 35.5 µM; with OVCAR-8 ovarian, greater than 42.9 µM.
On to `Cc1ccc(-c2c(C#N)c(-c3ccc(N(C)C)cc3)c(C#N)c(=O)n2NS(=O)(=O)c2ccccc2)cc1`, for which the TGI was greater than 100 µM with MALME-3M melanoma; greater than 100 µM in the test on SNB-19 CNS; greater than 100 µM with IGROV1 ovarian; 68.1 µM in the test with RXF 393 renal; greater than 100 µM with ACHN renal; 33.2 µM with RPMI-8226 leukemia. The TGI in the test with NCI/ADR-RES ovarian, in the test with HCT-15 colon, with EKVX NSCLC, with NCI-H226 lung, in the test on MDA-MB-231 breast and with OVCAR-8 ovarian was greater than 100 µM each time.
Turning to `O=C1/C(=C/c2cccc([N+](=O)[O-])c2)CCCc2ccccc21`, the TGI in the test with MALME-3M melanoma was determined as 22.2 µM; in the test on OVCAR-3 ovarian, 26.5 µM; with SNB-19 CNS, 28.5 µM; in the test on IGROV1 ovarian, 25.8 µM; with ACHN renal it was 26.6 µM; in the test on RPMI-8226 leukemia it was 49 µM. The TGI in the test with NCI/ADR-RES ovarian amounted to 23.8 µM; in the test on HCT-15 colon, 23 µM; with UO-31 renal it was 30 µM; in the test on EKVX NSCLC, 32.5 µM; with NCI-H226 lung it was 33.2 µM; in the test with SR leukemia, 11 µM. The figures for the TGI in the test on MDA-MB-231 breast and with OVCAR-8 ovarian were 34.2 µM and 28.9 µM, respectively.
On to `N#Cc1c(-c2ccccc2)c(C#N)c(=O)n(NS(=O)(=O)c2ccccc2)c1O`, for which the TGI in the test on MALME-3M melanoma, in the test on SNB-19 CNS, in the test on IGROV1 ovarian, in the test with RXF 393 renal, with ACHN renal and in the test on RPMI-8226 leukemia was greater than 100 µM each time. In addition, the TGI in the test on NCI/ADR-RES ovarian, in the test on HCT-15 colon, in the test on EKVX NSCLC, in the test with NCI-H226 lung, in the test with MDA-MB-231 breast and with OVCAR-8 ovarian was greater than 100 µM throughout.
Turning to `CN(C(=O)C1=CCCCCC1)c1ccccc1I`, the TGI with OVCAR-3 ovarian, with SNB-19 CNS, in the test with IGROV1 ovarian, in the test with RXF 393 renal, in the test on ACHN renal and with RPMI-8226 leukemia was greater than 100 µM in each case. For the same compound, the TGI with NCI/ADR-RES ovarian is 68.7 µM; in the test on HCT-15 colon, greater than 100 µM; in the test with UO-31 renal, greater than 100 µM; in the test on EKVX NSCLC it was 80.4 µM; with SR leukemia, greater than 100 µM; with MDA-MB-231 breast it was greater than 100 µM. This compound had a TGI in the test on OVCAR-8 ovarian greater than 100 µM.
Regarding `CCOC(=O)[C@H]1C[C@@H](C(=O)c2ccccc2)N2N=C(c3ccc(Br)cc3)C=C[C@H]12`, the TGI with OVCAR-3 ovarian, in the test with SNB-19 CNS, in the test on RXF 393 renal, with ACHN renal, in the test on RPMI-8226 leukemia and with NCI/ADR-RES ovarian was greater than 100 µM in each case. Moreover, the TGI with HCT-15 colon, with UO-31 renal, in the test on NCI-H226 lung, in the test on SR leukemia, with MDA-MB-231 breast and with OVCAR-8 ovarian was greater than 100 µM each time.
`O=C(O)CCC(=O)Nc1ccc2c(c1)S(=O)(=O)N(CC(=O)O)C2=O`: the TGI in the test with MALME-3M melanoma, in the test on OVCAR-3 ovarian, in the test with SNB-19 CNS, in the test on IGROV1 ovarian, in the test on ACHN renal and in the test with RPMI-8226 leukemia was greater than 100 µM in each case. For the same compound, the TGI with NCI/ADR-RES ovarian, with HCT-15 colon, with UO-31 renal, in the test on EKVX NSCLC, in the test on NCI-H226 lung and in the test on SR leukemia was greater than 100 µM in each case. The TGI with MDA-MB-231 breast and in the test on OVCAR-8 ovarian was greater than 100 µM throughout.
On to `CSC1=N/C(=C\c2cccs2)C(=O)N1CN1CCCCC1`, for which the TGI in the test with MALME-3M melanoma is greater than 100 µM; with OVCAR-3 ovarian it was greater than 100 µM; in the test on IGROV1 ovarian it was greater than 100 µM; with ACHN renal, greater than 100 µM; in the test on RPMI-8226 leukemia, 68.8 µM; in the test with NCI/ADR-RES ovarian it was greater than 100 µM. The TGI in the test with HCT-15 colon, with UO-31 renal, in the test on EKVX NSCLC, in the test with NCI-H226 lung, in the test on SR leukemia and in the test with MDA-MB-231 breast was greater than 100 µM throughout. Besides, in the test on OVCAR-8 ovarian, the TGI is greater than 100 µM.
With `CC(=O)NNC=N/C(C#N)=C(\N)C#N`, the TGI in the test on MALME-3M melanoma, with OVCAR-3 ovarian, in the test with SNB-19 CNS, in the test on IGROV1 ovarian, in the test with ACHN renal and with RPMI-8226 leukemia was greater than 100 µM each time. In addition, the TGI with NCI/ADR-RES ovarian, in the test on HCT-15 colon, with UO-31 renal, with EKVX NSCLC, with NCI-H226 lung and with SR leukemia was greater than 100 µM throughout. Besides, the TGI with MDA-MB-231 breast and in the test with OVCAR-8 ovarian was greater than 100 µM throughout.
In the case of `CC(C#N)Nc1ccc(Oc2ccc(C(C)(C)c3ccc(Oc4ccc(NC(C)C#N)cc4)cc3)cc2)cc1` (centres undefined), the TGI in the test on MALME-3M melanoma, in the test on OVCAR-3 ovarian, with SNB-19 CNS, in the test on IGROV1 ovarian, in the test on RXF 393 renal and in the test on ACHN renal was greater than 100 µM in each case. Also, the TGI in the test on NCI/ADR-RES ovarian, in the test with HCT-15 colon, in the test with UO-31 renal, in the test on EKVX NSCLC, with NCI-H226 lung and in the test on MDA-MB-231 breast was greater than 100 µM each time. The same compound yielded a TGI in the test with OVCAR-8 ovarian greater than 100 µM.
Consider `C1CSCC2(COC2)CS1`, for which the TGI with SNB-19 CNS, with RXF 393 renal, in the test with ACHN renal, in the test with NCI/ADR-RES ovarian, in the test with UO-31 renal and in the test with NCI-H226 lung was greater than 100 µM each time. For the same compound, the TGI with SR leukemia and in the test with OVCAR-8 ovarian was greater than 100 µM in each case.
